Converted amounts (≈) assume the structure as drawn.
Columns and labels:
[1] = tested on: HCV replicon in MH-14 cells; details: cited from earlier work; for HCV RNA accumulation inhibited: Northern blot and quantitative RT-PCR, MH-14 cells
[2] = tested on: CD4^+ PBMCs; assay: Mixed lymphocyte reaction, [3H]-thymidine incorporation; type: cell-based; details: for % Stimulation (relative): cyclosporin 1 μg/ml, five days; for immunosuppressive activity (interpretation of Table 2): mixed lymphocyte reaction
Method: In this assay, cyclosporins were dissolved in ethanol (10 mg/ml). Freshly isolated CD4^+ PBMCs from two healthy donors were mixed subsequent to inactivation by irradiation of one of the populations (stimulator cells; S). […] R) was determined by [^3H]-thymidine incorporation. The assay was conducted reciprocally with the two cell populations, each being inactivated and stimulated in turn. Stimulation (%) of responder cells was calculated by the formula: […] Sample refers to a mixture of stimulator and responder cells. Background represents a control in which only stimulator cells are mixed.

[3] = tested on: luciferase-containing HCV minireplicon in Huh 5-2 cells
Method: (§1) Assays used Huh 5-2 cells that contained a bicistronic RNA encoding a firefly luciferase-ubiquitin-neomycin phosphotransferase fusion protein and HCV proteins NS3-5. The viral sequences originated from an HCV virus of genotype 1b. Cells were cultured in RPMI 1640 medium (Gibco) supplemented with 10% fetal calf serum, 2 mM glutamine (Life Technologies), 1× non-essential amino acids (Life Technologies), 100 u/ml penicillin, 100 μg/ml streptomycin and 250 μg/ml G418 (Geneticin, Life Technologies) at 37° C. and 5% CO2. For antiviral (replication) assays, cells were seeded at a density of 7000 cells/well in 96-well View Plates™ (Packard) in the same medium except for G418. After a 24-h incubation, medium was removed, serial dilutions of test compounds in medium were added, and cells were incubated for an additional 72 h.
Antiviral effects were estimated either by luciferase assay or quantitative RT-PCR. To carry out luciferase assays, medium was removed, and cells were washed with PBS. Subsequent to lysis in 50 μl of Glo-lysis buffer (Promega) for 15 min, 50 μl of Stead-Glo Luciferase Assay Reagent (Promega) were added to cell lysates. Luciferase activity was measured using a luminometer, and the signal from each test well was expressed as a percentage of the signal measured in wells of cultures not exposed to a test compound. […]

[4] = MTT assay of cytostatic/cytotoxic effect in Huh 5-2 cells; details: human
Excerpt: Cell density and cytostatic effects were estimated in parallel cultures in regular 96-well plates (Beckton-Dickinson) using the MTT assay (CellTiter 96® AQueous Non-Radioactive Cell Proliferation Assay, Promega). In this assay, 3-(4,5-dimethylthiazol-2-yl)-5-(3-carboxymethoxy-phenyl)-2-(4-sulfophenyl)-2H-tetrazolium (MTS) is bioreduced to a formazan that is quantitated at 498 nm in a plate reader. Formazan production is directly correlated with number of life cells.
(§2) Results from these experiments permitted calculation of EC50 for the different cyclosporins, which is the effective concentration required to inhibit HCV replicon replication by 50%, and of CC50, which is the concentration required that inhibits the proliferation of exponentially growing cells by 50%, and a selectivity index SI, which is the ratio between CC50 and EC50.

[5] = tested on: HCV replicon in Huh 5-2 cells; details: EC50 derived from RNA titers by quantitative RT-PCR; asterisk = lower of two independently determined values
Method: as §1
The fluorogenic probe was 5′-[…]-3′.
as §2

[6] = target: T1, human recombinant cyclophilin A (Homo sapiens, UniProt P62937); assay: PPlase activity of cyclophilin A, tight binding inhibitor fit (Garcia-Echverria et al.); type: biochemical; details: for Et (total enzyme concentration): fit parameter of tight binding equation
T1 construct: purchased Sigma
Method: Commercial human recombinant cyclophilin A (Sigma) was used in the assays. PPlase activity of cyclophilins was determined using a chymotrypsin-coupled spectrophotometric assay according to Garcia-Echverria et al. (BBRC, 191, (1993), 70-75). This method is based on the high trans selectivity of chymotrypsin for peptides of the type N-succinyl-ala-ala-pro-phe-p-nitroanilide. The peptides cleavage liberated the para-nitroaniline moiety that could be detected and quantitated at 390 nm. The hydrolysis of the cis form was limited by the rate of cis-trans isomerisation carried out by cyclophilin A. The peptide was made up in a solution of […] LiCl in 2,2,2-trifluoroethanol at 470 mM to enhance the cis conformer peptides population. The assay was performed on the split beam spectrophotometer and the water bath was set at 5° C. Cyclophilin A (7500 pmol/mg total enzyme concentration; Sigma) were dissolved at 20 nM in a buffer (35 mM HEPES and 0.26 mg/ml chymotrypsin (specific activity 50 units/mg), pH 7.8 with KOH) and were incubated for 6 minutes at room temperature followed by 54 minutes in the water bath. […] Then 3.5 ml of the incubated cyclophilin was added to the sample cuvette. […] Peptide was added at 25 μM to initiate the reaction and the change in absorbance was monitored at 10 data points per second. As a control, rates were also determined for a parallel reaction that lacked cyclophilin. These blank rates of peptide hydrolysis (i.e. in the absence of cyclophilin) were subtracted from rates in the presence of cyclophilin A.
The initial rates obtained from the PPlase assays were analysed by first order regression analysis by using first order transformation of the traces of the time course of the change in the absorbance at 390 nm. Total enzyme concentration (Et), the inhibitor dissociation constant (Ki) and the rate constant for the rate limiting reaction was calculated with the software FigSyS (2003, Biosoft) by fitting the data obtained from the regression analysis in the tight binding inhibitor multiprotein equation.
v=k*Et*P−k*(−b−sqrt(b*b−4*c))/2
where b is defined as b=−(Et*P+I+Ki) and c is c=Et*P*I. Once Et, Ki and k were calculated by the computer for a given set of data, a graphic representation of the data was plotted and the line fitted to the points assuming tight inhibitor binding to a single protein, defined by the following equations:
v=K*Et*P−K(B−sqrt(B*B−4*C))/2
where B=Et*P+I+Ki and C=Et*P*I.

[7] = tested on: Jc1-Luc virus (full-length chimeric genome between HCV strains J6 and JFH1); assay: Antiviral luciferase assay in hepatoma cells infected with recombinant HCV; type: cell-based; details: infected Huh-7-Lunet and Huh-7.5 cells, 72 hours, FIGS. 1 and 2
Excerpt: The method used hepatoma cells that had been infected with an infectious full length chimeric HCV construct or the same virus that was modified to carry a luciferase receptor gene.
Infectious HCV viruses of full-length chimeric genome between HCV strains J6 and JFH1 (Jc1) were used to inoculate the hepatoma cells of the assays. The construct of Jc1 virus was also modified to obtain a bicistronic genome carrying a luciferase reporter gene (Jc1-Luc).
Assays used either Huh-7-Lunet or Huh-7.5 cells (Lohmann et al., Science 285(5424), (1999), 110-113). Cells were grown in Dulbecco's modified Eagle's Medium (DMEM; Gibco) supplemented with 10% heat-inactivated fetal bovine serum (FCS) (Integro), 1× non-essential amino acids (Gibco), 100 IU/ml penicillin (Gibco), 100 μg/ml streptomycin (Gibco) or 25 μg/ml hygromycin (Gibco) for Huh-mono cells at 37° C. and 5% CO2. For antiviral (replication) assays, Huh-7-Lunet and Huh-7.5 cells were seeded at a density of 2×104 or 4×10^4 cells per well of a 12-well plate. […]
The inhibition of viral replication were estimated by luciferase assay. […] Firefly luciferase activity was measured according to Krieger et al. (J Virol, 75(10), (2001), 4614-4624). […] Finally, luminescence was measured by using a Lumat LB9507 luminometer (Berthold) for 20 samples.

[8] = tested on: HCV replicon in Huh-9-13 cells; assay: HCV replicon clearance and rebound in Huh-9-13 cells; type: cell-based; details: 0.5 or 1 μg/ml for 7 consecutive passages, then G418 1000 μg/ml for 2 passages; FIG. 3
Method: Assays used Huh-9-13 cells, human hepatoma cells (Huh-7) (Lohmann et al., Science 285(5424), (1999), 110-113) Cells were grown in the usual complete medium DMEM without G418 pressure.
RT-PCR were performed on extracts of viral RNA of samples taken at different passage points. The forward and reverse primers used were 5′-[sequence]-3′ and 5′-[sequence]-3′, respectively. The fluorogenic probe was 5′-[sequence]-3′. As an internal control, a plasmid containing part of the neomycin phosphotransferase gene sequence was used. Results were analysed and expressed as a quantity of replicon RNA (ng) per 1'000 cells and used to draft a graph.

[9] = Initial phase I clinical studies, safety of oral doses; type: in vivo; details: oral doses of 50 to 1600 mg; not dose-related
Method: Initial phase I clinical studies were carried out to assess the safety of oral doses of [D-MeAla]^3-[EtVal]^4-CsA, and to determine the pharmacokinetic profile and safety profile of the drug substance. […] These side effects were not dose-related.

T1 sequence (P62937 whole entry): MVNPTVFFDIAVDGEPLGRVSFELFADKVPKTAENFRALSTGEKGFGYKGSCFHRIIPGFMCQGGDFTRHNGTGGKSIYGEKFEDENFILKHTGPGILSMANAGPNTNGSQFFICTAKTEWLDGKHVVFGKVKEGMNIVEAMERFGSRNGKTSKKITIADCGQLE

Molecule | HCV RNA accumulation inhibited [1] | % Stimulation (relative) ([2]; co-culture R1 × S2) [%] | % Stimulation (relative) ([2]; co-culture R2 × S1) [%] | immunosuppressive activity (interpretation of Table 2) [2] | EC50 (μg/ml) +/− Std. Dev. ([3]; luciferase assay, Huh 5-2 cells, 72 h) [µg/mL] | Selectivity index ([3]; ratio between CC50 and EC50, luciferase and MTT assays) | CC50 [4] [µg/mL] | SI values [5] | k (rate constant for the rate limiting reaction) ([6]; cyclophilin A) [s⁻¹] | Ki ([6]; cyclophilin A, inhibitor 2-50 nM) [nM] | Et (total enzyme concentration) [6] [pmol/mg] | effectiveness in reducing HCV RNA titer ([1]; compared with CsA) | antiviral activity [7] | HCV RNA titer reduction ([1]; 1 μg/ml, 7-day exposure) | CC50 ([4]; Huh 5-2 cells) [µg/mL] | outcome of treated cultures in the presence of G418 (rebound phase) [8] | side effects [9]
C/C=C/C[C@@H](C)C(=O)[C@H]1C(=O)N[C@@H](C(C)C)C(=O)N(C)CC(=O)N(C)[C@@H](CC(C)C)C(=O)N[C@@H](C(C)C)C(=O)N(C)[C@@H](CC(C)C)C(=O)N[C@@H](C)C(=O)N[C@H](C)C(=O)N(C)[C@@H](CC(C)C)C(=O)N(C)[C@@H](CC(C)C)C(=O)N(C)[C@@H](C(C)C)C(=O)N1C [PSC 833] | not | – | – | – | – | – | – | – | – | – | – | – | – | – | – | – | –
C/C=C/C[C@@H](C)[C@@H](O)[C@H]1C(=O)N[C@@H](CC)C(=O)N(C)CC(=O)N(C)[C@@H]([C@@H](C)CC)C(=O)N[C@@H](C(C)C)C(=O)N(C)[C@@H](CC(C)C)C(=O)N[C@@H](C)C(=O)N[C@H](C)C(=O)N(C)[C@@H](CC(C)C)C(=O)N(C)[C@@H](CC(C)C)C(=O)N(C)[C@@H](C(C)C)C(=O)N1C [[MeIle]^4-CsA] | – | 84 | 75 | essentially devoid of immunosuppressive activity | 0.22 (≈ 0.183 µM) | 64 | 14 (≈ 11.6 µM) | 73 | 0.17 ± 0.0068 | 2.11 ± 0.32 | 7500 | about equally as effective as CsA | – | – | – | – | –
Cyclosporin A [CsA] | inhibited | – | – | – | – | – | – | – | 0.17 ± 0.0069 | – | 7500 | – | dose-dependent antiviral activity | about 200 fold | – | – | –
C/C=C/C[C@@H](C)[C@@H](O)[C@H]1C(=O)N[C@@H](CC)C(=O)N(C)[C@H](C)C(=O)N(CC)[C@@H](C(C)C)C(=O)N[C@@H](C(C)C)C(=O)N(C)[C@@H](CC(C)C)C(=O)N[C@@H](C)C(=O)N[C@H](C)C(=O)N(C)[C@@H](CC(C)C)C(=O)N(C)[C@@H](CC(C)C)C(=O)N(C)[C@@H](C(C)C)C(=O)N1C [[D-MeAla]^3-[EtVal]^4-CsA] | – | – | – | essentially devoid of immunosuppressive activity | – | – | – | – | 0.16 ± 0.0074 | – | 7500 | – | dose-dependent antiviral activity | – | > 27 | the cultures died | Mild and short-lived side effects were observed including nausea, vomiting, abdominal pain, mild headaches

— US20080139463A1, “Use Of [D-Meala]3-[Etval]4-Cyclosporin For The Treatment Of Hepatitis C Infection And Pharmaceutical Composition Comprising Said [D-Meala]3-[Etval]4-Cyclosporin” (priority 2005, published 2008)
